For orientation: EC50 means the concentration that produces a half-maximal response.

Among the data in patent US9708286B2, “Ingenol-3-acylates III and ingenol-3-carbamates” (LEO Laboratories Limited, priority 2010, dated 2017) are EC50 values, retold here.

What all share (format): cell-based
Assay [1] has as its system Primary human epidermal keratinocytes, HeKa. The experiment in a line: HeKa cytokine release (IL-8). The following applies: Homo sapiens, read-out: HeKa cytokine release (IL-8) Rel EC50 range. The protocol: Primary human epidermal keratinocytes, HeKa, were seeded (10.000 cells/well) in 96-well plates the day before the assay. Test compounds were diluted in DMSO (dimethyl sulfoxide) and further diluted in assay medium and pipetted into wells of 96 well-plates containing HeKa cells. The plates were incubated for 6 h at 37° C. in humidified air with 5% CO2. Plates were centrifuged briefly to spin down cells at 4° C., the supernatant was removed and analysed by Meso Scale Discovery (MSD) 4-spot cytokine assay (Pro-inflammatory II Ultra Sensitive kit, MSD, MD, USA). The MSD assay employs a sandwich immunoassay format where capture antibodies are coated in a patterned array on the bottom of the wells of a 4-Spot-Multi-MSD plate. Standard samples were incubated in the MULTI-SPOT plates as well, and the cytokine (IL-8) binds to its corresponding capture antibody spot. The cytokine level was quantitated on a SECTOR™ Imager using a cytokine-specific Detection Antibody labelled with MSD SULFO-TAG™ reagent.
Test compound titration curves were fitted to a four-parameter sigmoidal curve after normalizing the effect of the test compound to the effect of the positive control (1.5×10^−7 M PEP0005). Rel EC50 denotes the concentration of test compound producing an effect that is midway between the fitted top and bottom.

A further assay deals with HeLa cells. The experiment in a line: Necrosis assay. Conditions: Homo sapiens, 0.5 h, read-out: HeLa necrosis EC50 range. In short, it runs like this:
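HeLa cells treated with compound at 10 μM to 400 μM (final) for 30 min at 37° C., viability then measured by PrestoBlue fluorescence (ex 535/em 630 nm). Normalized to 1% DMSO and 400 μM ingenol mebutate controls; AbsEC50 from four-parameter sigmoidal fit.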

The test system of assay [2] is PMN's (polymorphonuclear leukocytes). The experiment in a line: Neutrophil oxidative burst. The following applies: Leukocyte, 40 min, normalized to 5×10^−7 M PEP0005. The method in brief: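 Human buffy-coat neutrophils (2.5×10^5/well) in HBSS with 0.1% BSA, 5 mM glucose treated with compound premixed with 10 μM hydroethidine for 40 min at RT; fluorescence read at 485/579 nm. Normalized to 5×10^−7 M PEP0005; Rel EC50 is midway between fitted top and bottom, Abs EC50 gives 50% of PEP0005 maximum.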

Where [3] appears, read: read-out: Neutrophil oxidative burst Rel EC50 range, PMN from buffy coats, 40 min at RT, hydroethidine fluorescence.

Read-outs that look alike come from different tables or passages of the source.

With `CC1=C[C@]23C(=O)[C@@H](C=C(CO)[C@@H](O)[C@]2(O)[C@H]1OC(=O)c1nn(C)cc1Cl)[C@H]1[C@@H](C[C@H]3C)C1(C)C` [Compound 526, Ingenol 3-(4-chloro-1-methyl-pyrazole-3-carboxylate)], the EC50 in assay [1] (HEKa, 6 h) was more than 0.1 µM; in the assay on HeLa cells (HeLa) it was more than 350 µM; in assay [2] (setting [3]), 0.02 to 0.1 µM.
In the case of `CC1=C[C@]23C(=O)[C@@H](C=C(CO)[C@@H](O)[C@]2(O)[C@H]1OC(=O)c1sc(C)nc1C)[C@H]1[C@@H](C[C@H]3C)C1(C)C` [Compound 527, Ingenol 3-(2,4-dimethylthiazole-5-carboxylate)], the EC50 in assay [1] (HEKa, 6 h) was 0.02 to 0.1 µM; in the assay with HeLa cells (HeLa) it was 150 to 350 µM; in assay [2] (setting [3]), less than 0.02 µM.
In the same order, the values of `CC1=C[C@]23C(=O)[C@@H](C=C(CO)[C@@H](O)[C@]2(O)[C@H]1OC(=O)c1nc(C)oc1C)[C@H]1[C@@H](C[C@H]3C)C1(C)C` [Compound 528, Ingenol 3-(2,5-dimethyloxazole-4-carboxylate)] are more than 0.1 µM, more than 350 µM and 0.02 to 0.1 µM.
In the same order, the values of `CC1=C[C@]23C(=O)[C@@H](C=C(CO)[C@@H](O)[C@]2(O)[C@H]1OC(=O)c1c(C)coc1C)[C@H]1[C@@H](C[C@H]3C)C1(C)C` [Compound 529, Ingenol 3-(2,4-dimethylfuran-3-carboxylate)] are less than 0.02 µM, less than 150 µM and less than 0.02 µM.
Take `CCc1noc(CC)c1C(=O)O[C@H]1C(C)=C[C@]23C(=O)[C@@H](C=C(CO)[C@@H](O)[C@]12O)[C@H]1[C@@H](C[C@H]3C)C1(C)C` [Compound 530, Ingenol 3-(3,5-diethylisoxazole-4-carboxylate)]: the EC50 was less than 0.02 µM in assay [1] (HeKa cells, 6 h at 37° C., IL-8 by MSD assay, normalized to 1.5×10^−7 M PEP0005); less than 150 µM in the assay with HeLa cells (HeLa cells, 30 min at 37° C., PrestoBlue, AbsEC50, normalized to 400 μM ingenol mebutate); less than 0.02 µM in assay [2] (PMN from buffy coats, 40 min at RT, hydroethidine fluorescence, read-out: Neutrophil oxidative burst Rel EC50 range).
Turning to `CC1=C[C@]23C(=O)[C@@H](C=C(CO)[C@@H](O)[C@]2(O)[C@H]1OC(=O)c1cccc2cc[nH]c12)[C@H]1[C@@H](C[C@H]3C)C1(C)C` [Compound 531, Ingenol 3-(1H-indole-7-carboxylate)], the EC50 in assay [1] (HEKa, 6 h) is less than 0.02 µM; in the assay with HeLa cells (HeLa) it was less than 150 µM; in assay [2] (setting [3]) it was 0.02 to 0.1 µM.
The corresponding values for `CC1=C[C@]23C(=O)[C@@H](C=C(CO)[C@@H](O)[C@]2(O)[C@H]1OC(=O)c1cc(C)nn1C(C)(C)C)[C@H]1[C@@H](C[C@H]3C)C1(C)C` [Compound 532, Ingenol 3-(2-tert-butyl-5-methyl-pyrazole-3-carboxylate)] are less than 0.02 µM, less than 150 µM and 0.02 to 0.1 µM.
The corresponding values for `CC1=C[C@]23C(=O)[C@@H](C=C(CO)[C@@H](O)[C@]2(O)[C@H]1OC(=O)c1cc(C(C)(C)C)nn1C)[C@H]1[C@@H](C[C@H]3C)C1(C)C` [Compound 533, Ingenol 3-(5-tert-butyl-2-methyl-pyrazole-3-carboxylate)] are less than 0.02 µM, less than 150 µM and less than 0.02 µM.
In the same order, the values of `CC1=C[C@]23C(=O)[C@@H](C=C(CO)[C@@H](O)[C@]2(O)[C@H]1OC(=O)c1c(C)nc2sccn12)[C@H]1[C@@H](C[C@H]3C)C1(C)C` [Compound 534, Ingenol 3-(6-methylimidazo[2,1-b]thiazole-5-carboxylate)] are less than 0.02 µM, 150 to 350 µM and less than 0.02 µM.
Regarding `CC1=C[C@]23C(=O)[C@@H](C=C(CO)[C@@H](O)[C@]2(O)[C@H]1OC(=O)c1c(C)oc(C)c1C)[C@H]1[C@@H](C[C@H]3C)C1(C)C` [Compound 536, Ingenol 3-(2,4,5-trimethylfuran-3-carboxylate)], the EC50 in assay [1] (HEKa, 6 h) is less than 0.02 µM; in the assay with HeLa cells (HeLa), 150 to 350 µM; in assay [2] (setting [3]) it was less than 0.02 µM.
Turning to `CC1=C[C@]23C(=O)[C@@H](C=C(CO)[C@@H](O)[C@]2(O)[C@H]1OC(=O)c1sccc1C)[C@H]1[C@@H](C[C@H]3C)C1(C)C` [Compound 537, Ingenol 3-(3-methylthiophene-2-carboxylate)], the EC50 in assay [1] (HEKa, 6 h) is less than 0.02 µM; with HeLa cells (HeLa), 150 to 350 µM; in assay [2] (setting [3]) it was less than 0.02 µM.
As for `CC1=C[C@]23C(=O)[C@@H](C=C(CO)[C@@H](O)[C@]2(O)[C@H]1OC(=O)c1c(N2CCCCC2)cnn1C)[C@H]1[C@@H](C[C@H]3C)C1(C)C` [Compound 538, Ingenol 3-(2-methyl-4-(1-piperidyl)pyrazole-3-carboxylate)], the EC50 is 0.02 to 0.1 µM in assay [1] (HEKa, 6 h); 150 to 350 µM with HeLa cells (HeLa); less than 0.02 µM in assay [2] (setting [3]).
The corresponding values for `CC1=C[C@]23C(=O)[C@@H](C=C(CO)[C@@H](O)[C@]2(O)[C@H]1OC(=O)c1nc(Cl)sc1C(C)C)[C@H]1[C@@H](C[C@H]3C)C1(C)C` [Compound 539, Ingenol 3-(2-chloro-5-isopropyl-thiazole-4-carboxylate)] are less than 0.02 µM, less than 150 µM and 0.02 to 0.1 µM.
Consider `CC1=C[C@]23C(=O)[C@@H](C=C(CO)[C@@H](O)[C@]2(O)[C@H]1OC(=O)c1c(Cl)c(C)nn1C)[C@H]1[C@@H](C[C@H]3C)C1(C)C` [Compound 540, Ingenol 3-(4-chloro-2,5-dimethyl-pyrazole-3-carboxylate)], for which the EC50 is less than 0.02 µM in assay [1] (HEKa, 6 h); less than 150 µM in the assay on HeLa cells (HeLa); less than 0.02 µM in assay [2] (setting [3]).
As for `CC1=C[C@]23C(=O)[C@@H](C=C(CO)[C@@H](O)[C@]2(O)[C@H]1OC(=O)c1c(C)cn(C)c1C)[C@H]1[C@@H](C[C@H]3C)C1(C)C` [Compound 541, Ingenol 3-(1,2,4-trimethylpyrrole-3-carboxylate)], the EC50 in assay [1] (HEKa, 6 h) was less than 0.02 µM; with HeLa cells (HeLa), 150 to 350 µM; in assay [2] (setting [3]) it was less than 0.02 µM.
Regarding `CC1=C[C@]23C(=O)[C@@H](C=C(CO)[C@@H](O)[C@]2(O)[C@H]1OC(=O)c1c(C)cc(C)n1C)[C@H]1[C@@H](C[C@H]3C)C1(C)C` [Compound 542, Ingenol 3-(1,3,5-trimethylpyrrole-2-carboxylate)], the EC50 in assay [1] (HEKa, 6 h) is less than 0.02 µM; with HeLa cells (HeLa), less than 150 µM; in assay [2] (setting [3]), less than 0.02 µM.
Take `CC1=C[C@]23C(=O)[C@@H](C=C(CO)[C@@H](O)[C@]2(O)[C@H]1OC(=O)C1N(C(=O)OC(C)(C)C)CCC1(C)C)[C@H]1[C@@H](C[C@H]3C)C1(C)C` (stereo partly drawn) [Compound 544, Ingenol 3-(1-tert-butyloxycarbonyl-3,3-dimethylpyrrolidine-2-carboxylate)]: the EC50 in assay [1] (HEKa, 6 h) is more than 0.1 µM; in the assay with HeLa cells (HeLa) it was 150 to 350 µM; in assay [2] (setting [3]), more than 0.1 µM.
With `CC1=C[C@]23C(=O)[C@@H](C=C(CO)[C@@H](O)[C@]2(O)[C@H]1OC(=O)c1c(C)nn(C(C)C)c1C)[C@H]1[C@@H](C[C@H]3C)C1(C)C` [Compound 546, Ingenol 3-(1-isopropyl-3,5-dimethyl-pyrazole-4-carboxylate)], the EC50 is less than 0.02 µM in assay [1] (HEKa, 6 h); 150 to 350 µM in the assay with HeLa cells (HeLa); less than 0.02 µM in assay [2] (setting [3]).
With `CCc1onc(C(C)C)c1C(=O)O[C@H]1C(C)=C[C@]23C(=O)[C@@H](C=C(CO)[C@@H](O)[C@]12O)[C@H]1[C@@H](C[C@H]3C)C1(C)C` [Compound 547, Ingenol 3-(5-ethyl-3-isopropyl-isoxazole-4-carboxylate)], the concentration for a half-maximal effect (EC50) in assay [1] (HEKa, 6 h) was less than 0.02 µM; with HeLa cells (HeLa), less than 150 µM; in assay [2] (setting [3]) it was 0.02 to 0.1 µM.
In the same order, the values of `CC1=C[C@]23C(=O)[C@@H](C=C(CO)[C@@H](O)[C@]2(O)[C@H]1OC(=O)c1c2ccccc2nn1C)[C@H]1[C@@H](C[C@H]3C)C1(C)C` [Compound 548, Ingenol 3-(2-methylindazole-3-carboxylate)] are less than 0.02 µM, 150 to 350 µM and 0.02 to 0.1 µM.
The corresponding values for `CC1=C[C@]23C(=O)[C@@H](C=C(CO)[C@@H](O)[C@]2(O)[C@H]1OC(=O)C1=C(C)C(=O)OC12CCCCC2)[C@H]1[C@@H](C[C@H]3C)C1(C)C` [Compound 550, Ingenol 3-(2-methyl-3-oxo-4-oxaspiro[4.5]dec-1-ene-1-carboxylate)] are less than 0.02 µM, less than 150 µM and less than 0.02 µM.
